Our source for the melting point values is US7368578B2, “Five-membered heterocyclic compounds” (Takeda Pharmaceutical Company Limited, priority 2002, dated 2008).

The molecule `CCOC(=O)Cc1ccc(-c2nc(COc3ccc(COc4nn(-c5ccccc5)cc4/C=C/c4coc(C(C)C)n4)cc3OC)c(C)o2)cc1` [Example 367, ethyl {4-[4-({4-[({4-[(E)-2-(2-isopropyl-1,3-oxazol-4-yl)ethenyl]-1-phenyl-1H-pyrazol-3-yl}oxy)methyl]-2-methoxyphenoxy}methyl)-5-methyl-1,3-oxazol-2-yl]phenyl}acetate] came in with a melting point of 106 to 108 °C.

`CCOC(=O)Cc1ccc(-c2nc(COc3ccc(COc4nn(-c5ccccc5)cc4/C=C/c4coc(C(C)(C)C)n4)cc3OC)c(C)o2)cc1` [Example 368, ethyl {4-[4-({4-[({4-[(E)-2-(2-tert-butyl-1,3-oxazol-4-yl)ethenyl]-1-phenyl-1H-pyrazol-3-yl}oxy)methyl]-2-methoxyphenoxy}methyl)-5-methyl-1,3-oxazol-2-yl]phenyl}acetate]: the melting point lay in the range of 126 to 129 °C.

As for `CCc1nc(/C=C/c2cn(-c3ccccc3)nc2OCc2ccc(OCc3nc(-c4cccc(C#N)c4)oc3C)c(OC)c2)cs1` [Example 372, 3-[4-({4-[({4-[(E)-2-(2-ethyl-1,3-thiazol-4-yl)ethenyl]-1-phenyl-1H-pyrazol-3-yl}oxy)methyl]-2-methoxyphenoxy}methyl)-5-methyl-1,3-oxazol-2-yl]benzonitrile], the melting point was in the range of 138 to 140 °C.

In turn, `CCc1nc(/C=C/c2cn(-c3ccccc3)nc2OCc2ccc(OCc3nc(-c4cccc(-c5noc(=O)[nH]5)c4)oc3C)c(OC)c2)cs1` [Example 375, 3-{3-[4-({4-[({4-[(E)-2-(2-ethyl-1,3-thiazol-4-yl)ethenyl]-1-phenyl-1H-pyrazol-3-yl}oxy)methyl]-2-methoxyphenoxy}methyl)-5-methyl-1,3-oxazol-2-yl]phenyl}-1,2,4-oxadiazol-5(4H)-one] returned a melting point of 139 to 140 °C.

Consider `CCc1nc(/C=C/c2cn(-c3ccccc3)nc2OCc2ccc(OCc3nc(-c4cccc(C(=O)NS(C)(=O)=O)c4)oc3C)c(OC)c2)cs1` [Example 376, 3-[4-({4-[({4-[(E)-2-(2-ethyl-1,3-thiazol-4-yl)ethenyl]-1-phenyl-1H-pyrazol-3-yl}oxy)methyl]-2-methoxyphenoxy}methyl)-5-methyl-1,3-oxazol-2-yl]-N-(methylsulfonyl)benzamide], for which the melting point was 211 to 213 °C.

Regarding `CCOC(=O)Cc1ccc(-c2nc(COc3ccc(COc4nn(-c5ccccc5)cc4/C=C/c4nc(CC)sc4C)cc3OC)c(C)o2)cc1` [Example 378, ethyl {4-[4-({4-[({4-[(E)-2-(2-ethyl-5-methyl-1,3-thiazol-4-yl)ethenyl]-1-phenyl-1H-pyrazol-3-yl}oxy)methyl]-2-methoxyphenoxy}methyl)-5-methyl-1,3-oxazol-2-yl]phenyl}acetate], the melting point lay in the range of 127 to 128 °C.

`CCOC(=O)Cc1ccc(-c2nc(COc3ccc(COc4nn(-c5ccccc5)cc4/C=C/c4nc(N5CCN(C(=O)OC(C)(C)C)CC5)sc4C)cc3OC)c(C)o2)cc1` [Example 380, tert-butyl 4-{4-[(E)-2-(3-{[4-({2-[4-(2-ethoxy-2-oxoethyl)phenyl]-5-methyl-1,3-oxazol-4-yl}methoxy)-3-methoxybenzyl]oxy}-1-phenyl-1H-pyrazol-4-yl)ethenyl]-5-methyl-1,3-thiazol-2-yl}piperazine-1-carboxylate]: the melting point was in the range of 112 to 114 °C.

The molecule `COc1cc(COc2nn(-c3ccccc3)cc2/C=C/c2nc(N3CCN(C(=O)OC(C)(C)C)CC3)sc2C)ccc1OCc1nc(-c2ccc(CC(=O)O)cc2)oc1C` [Example 381, [4-(4-{[4-({[4-((E)-2-{2-[4-(tert-butoxycarbonyl)piperazin-1-yl]-5-methyl-1,3-thiazol-4-yl}ethenyl)-1-phenyl-1H-pyrazol-3-yl]oxy}methyl)-2-methoxyphenoxy]methyl}-5-methyl-1,3-oxazol-2-yl)phenyl]acetic acid] registered a melting point of 119 to 120 °C.

Regarding `CCOC(=O)Cc1ccc(-c2nc(COc3ccc(COc4nn(-c5ccccc5)cc4/C=C/c4nc(N5CCCCC5)sc4C)cc3OC)c(C)o2)cc1` [Example 382, ethyl [4-{4-[(2-methoxy-4-{[(4-{(E)-2-[5-methyl-2-(piperidin-1-yl)-1,3-thiazol-4-yl]ethenyl}-1-phenyl-1H-pyrazol-3-yl)oxy]methyl}phenoxy)methyl]-5-methyl-1,3-oxazol-2-yl}phenyl]acetate], the melting point was in the range of 131 to 132 °C.

Turning to `COc1cc(COc2nn(-c3ccccc3)cc2/C=C/c2nc(N3CCCCC3)sc2C)ccc1OCc1nc(-c2ccc(CC(=O)O)cc2)oc1C` [Example 383, [4-{4-[(2-methoxy-4-{[(4-{(E)-2-[5-methyl-2-(piperidin-1-yl)-1,3-thiazol-4-yl]ethenyl}-1-phenyl-1H-pyrazol-3-yl)oxy]methyl}phenoxy)methyl]-5-methyl-1,3-oxazol-2-yl}phenyl]acetic acid], the melting point lay within 146 to 148 °C.

In turn, `COc1cc(COc2nn(-c3ccccc3)cc2/C=C/c2nc(N3CCOCC3)sc2C)ccc1OCc1nc(-c2ccc(CC(=O)O)cc2)oc1C` [Example 385, [4-(4-{[2-methoxy-4-({[4-{(E)-2-[5-methyl-2-(morpholin-4-yl)-1,3-thiazol-4-yl]ethenyl}-1-phenyl-1H-pyrazol-3-yl]oxy}methyl)phenoxy]methyl)-5-methyl-1,3-oxazol-2-yl}phenyl]acetic acid] yielded a melting point of 171 to 173 °C.

As to `CCc1nc(/C=C/c2cn(-c3ccccc3)nc2OCc2ccc(OCc3nc(-c4cccc(NS(C)(=O)=O)c4)oc3C)c(OC)c2)cs1` [Example 388, N-{3-[4-({4-[({4-[(E)-2-(2-ethyl-1,3-thiazol-4-yl)ethenyl]-1-phenyl-1H-pyrazol-3-yl}oxy)methyl]-2-methoxyphenoxy}methyl)-5-methyl-1,3-oxazol-2-yl]phenyl}methanesulfonamide], the melting point was in the range of 113 to 115 °C.

For `CCc1nc(/C=C/c2cn(-c3ccccc3)nc2OCc2cc(OCc3nc(-c4ccc(CC(=O)O)cc4)oc3C)no2)cs1` [Example 390, (4-{4-[({5-[({4-[(E)-2-(2-ethyl-1,3-thiazol-4-yl)ethenyl]-1-phenyl-1H-pyrazol-3-yl}oxy)methyl]isoxazol-3-yl}oxy)methyl]-5-methyl-1,3-oxazol-2-yl}phenyl)acetic acid], the melting point lay within 156 to 158 °C.

The melting point is the temperature, or range, at which the solid turns liquid.
